# Data as given in ChEMBL document CHEMBL1134574, “Synthesis and characterization of non-steroidal ligands for the glucocorticoid receptor: selective quinoline derivatives with prednisolone-equivalent functional activity” (J Med Chem, 2001).
# Key:
# [1] = molecular target: T1, Mineralocorticoid receptor (Homo sapiens, UniProt P08235); experiment: Binding affinity for mineralocorticoid receptor
# T1 sequence (P08235 whole entry): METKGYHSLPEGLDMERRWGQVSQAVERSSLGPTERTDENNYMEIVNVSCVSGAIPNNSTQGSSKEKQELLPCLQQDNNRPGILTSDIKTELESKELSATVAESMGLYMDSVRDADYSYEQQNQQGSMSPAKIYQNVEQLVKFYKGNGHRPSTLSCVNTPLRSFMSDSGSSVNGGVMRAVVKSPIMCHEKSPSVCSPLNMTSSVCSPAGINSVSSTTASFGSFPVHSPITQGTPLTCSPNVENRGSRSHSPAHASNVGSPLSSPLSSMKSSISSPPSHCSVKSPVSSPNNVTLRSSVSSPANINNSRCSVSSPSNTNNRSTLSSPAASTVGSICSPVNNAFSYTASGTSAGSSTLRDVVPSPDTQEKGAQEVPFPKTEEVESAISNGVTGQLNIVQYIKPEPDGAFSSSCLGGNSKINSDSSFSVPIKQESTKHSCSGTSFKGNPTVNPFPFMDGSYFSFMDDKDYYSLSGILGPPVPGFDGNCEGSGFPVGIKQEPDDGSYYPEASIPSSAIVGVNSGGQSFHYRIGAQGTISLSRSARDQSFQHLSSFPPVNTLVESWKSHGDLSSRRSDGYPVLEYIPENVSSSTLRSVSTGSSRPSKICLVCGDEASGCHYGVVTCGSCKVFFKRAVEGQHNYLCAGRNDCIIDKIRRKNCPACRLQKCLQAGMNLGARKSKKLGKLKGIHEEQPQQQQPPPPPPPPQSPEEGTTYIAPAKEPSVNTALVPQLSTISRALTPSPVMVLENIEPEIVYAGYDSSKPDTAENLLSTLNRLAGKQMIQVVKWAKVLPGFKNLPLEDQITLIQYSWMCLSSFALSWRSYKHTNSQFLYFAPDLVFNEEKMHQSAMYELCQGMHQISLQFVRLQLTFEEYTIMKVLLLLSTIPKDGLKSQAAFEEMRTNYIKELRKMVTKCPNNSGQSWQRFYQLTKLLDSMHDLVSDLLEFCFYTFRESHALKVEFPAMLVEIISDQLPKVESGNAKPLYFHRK
# Glucocorticoid receptor [2] = molecular target: T2, Glucocorticoid receptor (Homo sapiens, UniProt P04150); experiment: Binding affinity for glucocorticoid receptor
# T2 sequence (P04150 whole entry): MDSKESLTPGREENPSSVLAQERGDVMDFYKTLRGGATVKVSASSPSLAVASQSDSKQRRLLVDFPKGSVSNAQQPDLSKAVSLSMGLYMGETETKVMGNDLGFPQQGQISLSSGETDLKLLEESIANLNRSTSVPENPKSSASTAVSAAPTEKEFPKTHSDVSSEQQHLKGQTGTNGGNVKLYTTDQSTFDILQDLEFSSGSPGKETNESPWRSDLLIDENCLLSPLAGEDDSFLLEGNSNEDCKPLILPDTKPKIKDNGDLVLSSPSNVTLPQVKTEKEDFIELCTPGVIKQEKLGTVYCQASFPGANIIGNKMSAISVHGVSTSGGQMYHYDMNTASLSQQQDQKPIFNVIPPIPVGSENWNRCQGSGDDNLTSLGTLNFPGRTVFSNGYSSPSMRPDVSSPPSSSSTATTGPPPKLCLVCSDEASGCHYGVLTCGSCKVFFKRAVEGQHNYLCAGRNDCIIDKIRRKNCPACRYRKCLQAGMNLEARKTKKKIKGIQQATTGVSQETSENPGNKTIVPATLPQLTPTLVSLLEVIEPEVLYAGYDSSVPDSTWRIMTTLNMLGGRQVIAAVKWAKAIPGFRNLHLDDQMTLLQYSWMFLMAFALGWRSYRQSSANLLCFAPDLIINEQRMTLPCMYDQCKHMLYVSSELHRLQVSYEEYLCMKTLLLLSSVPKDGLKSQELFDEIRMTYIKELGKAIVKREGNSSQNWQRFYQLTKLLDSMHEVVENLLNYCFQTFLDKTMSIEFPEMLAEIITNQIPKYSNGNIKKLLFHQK
# Glucocorticoid receptor [3] = molecular target: T2, Glucocorticoid receptor; experiment: Transcriptional activation in CV-1 cells expressing glucocorticoid receptor; assay type: functional, cell-based
# [4] = molecular target: T3, Glucocorticoid receptor (Rattus norvegicus) (UniProt P06536); experiment: Anti-asthmatic effect as eosinophil influx in rat lung model; assay type: functional
# T3 sequence (whole entry): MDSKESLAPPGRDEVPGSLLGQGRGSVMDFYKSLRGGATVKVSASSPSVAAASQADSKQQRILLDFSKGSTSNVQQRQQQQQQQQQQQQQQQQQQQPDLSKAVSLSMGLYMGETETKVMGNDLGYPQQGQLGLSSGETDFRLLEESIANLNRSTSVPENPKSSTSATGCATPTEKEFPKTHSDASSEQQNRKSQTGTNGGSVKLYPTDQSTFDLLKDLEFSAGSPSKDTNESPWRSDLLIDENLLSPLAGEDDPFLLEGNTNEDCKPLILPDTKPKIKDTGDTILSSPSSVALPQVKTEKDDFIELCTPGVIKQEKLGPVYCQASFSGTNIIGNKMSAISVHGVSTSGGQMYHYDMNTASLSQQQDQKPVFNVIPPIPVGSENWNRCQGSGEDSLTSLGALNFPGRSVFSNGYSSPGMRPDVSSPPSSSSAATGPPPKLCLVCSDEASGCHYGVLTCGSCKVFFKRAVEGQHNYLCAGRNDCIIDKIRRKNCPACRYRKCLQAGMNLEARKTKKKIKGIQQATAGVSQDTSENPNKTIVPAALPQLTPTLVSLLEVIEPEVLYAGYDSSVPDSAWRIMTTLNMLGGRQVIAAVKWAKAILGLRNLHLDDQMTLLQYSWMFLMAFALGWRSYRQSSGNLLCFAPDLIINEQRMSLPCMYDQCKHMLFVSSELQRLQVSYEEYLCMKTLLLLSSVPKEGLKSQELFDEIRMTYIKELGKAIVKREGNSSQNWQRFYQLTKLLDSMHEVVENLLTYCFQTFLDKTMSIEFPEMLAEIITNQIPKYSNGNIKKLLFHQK
# Glucocorticoid receptor [5] = molecular target: T2, Glucocorticoid receptor; experiment: Glucocorticoid-induced aromatase activity in human skin fibroblasts; assay type: functional
# Glucocorticoid receptor [6] = molecular target: T2, Glucocorticoid receptor; experiment: Transcriptional repression activity in HEP G2 cells expressing glucocorticoid receptor compared to Dexamethasone; assay type: functional, cell-based, HepG2
compound,measurement,setting,value
COc1cccc2c1-c1ccc3c(c1C(c1cccc(OCSC)c1)O2)C(C)=CC(C)(C)N3 (stereo unspecified),Ki,[1],3840 nM
same,Ki,Glucocorticoid receptor [2],4 nM
same,IC50,Glucocorticoid receptor [3],9 nM
same,ED50,[4],2.8 mg/kg
same,IC50,Glucocorticoid receptor [5],140 nM
same,IC50,Glucocorticoid receptor [6],4 nM
